Measurements from patent US6300337A, “Acetamide derivative and use thereof” (Nippon Kayaku Kabushiki Kaisha, priority 1998, dated 2001).

Molecular target: T1, human chymase (Homo sapiens, UniProt P23946)
T1 construct: 60 g human tonsillar gland was finely divided by scissors and a scalpel; from tissue; host or cells: human tonsillar gland
T1 sequence (P23946 22-247): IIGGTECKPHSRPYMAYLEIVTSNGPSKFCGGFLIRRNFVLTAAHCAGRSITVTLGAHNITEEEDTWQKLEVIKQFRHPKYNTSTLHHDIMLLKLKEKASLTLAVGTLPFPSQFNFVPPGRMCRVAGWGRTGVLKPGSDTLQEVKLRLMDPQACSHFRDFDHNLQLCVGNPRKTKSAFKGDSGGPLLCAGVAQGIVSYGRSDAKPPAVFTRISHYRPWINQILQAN
Assay: inhibitory activity on human chymase (angiotensin I as substrate, angiotensin II determined by HPLC)
Format: biochemical
Conditions: for inhibitory activity on chymase (in words): chymase species not given; for IC50: first table, pH 8.0, 37° C., 15 min, read-out: 50% Inhibitory concentration (IC50) human chymase
Source text: It is known that chymase is present in tissues of various animals, and its isolation and purification methods are described in Anal. Biochem., 137, 449 (1984) and FEBS Letters, 323, 119 (1993). In the present invention, chymase was purified by the methods described in these literatures, and the present compounds were examined for inhibitory activity on human chymase or dog chymase. The specific methods are as follows:
60 g human tonsillar gland was finely divided by scissors and a scalpel, suspended in 0.1 M phosphate buffer (pH 8.0), and disrupted by a Polytron homogenizer for 5 minutes to prepare a crude chymase enzyme solution. The solution was centrifuged at 22000×g for 30 min, and the precipitate was used as a chymase enzyme fraction. The precipitate was washed by repeating the above procedure twice, and then suspended in 0.1 M phosphate buffer (pH 8.0) containing 2 M sodium chloride and 5% ammonium sulfate. The suspension was centrifuged at 27000×g for 20 min to give a supernatant as a chymase fraction. The supernatant was concentrated by ultrafiltration, applied to a G2000SW-XL column (6.0×300 mm), and eluted with 0.1 M phosphate buffer (pH 8.0). An active fraction decomposing succinyl leucyl leucyl valyl tyrosyl methylcoumarylamide (hereinafter referred to as the synthetic chymase substrate, made by Peptide Kenkyusho) was recovered, concentrated and used as a purified human chymase for the following activity measurement.
The inhibitory activity on the human chymase and dog chymase was measured using angiotensin I (made by Peptide Kenkyusho) for a substrate. 200 μl of 0.15 M Tris-HCl buffer (pH 8.0) containing 0.1 mM angiotensin I, 0.0002 μl of human or dog chymase solution and 2 μl of a dimethylsulfoxide solution of the present compound were added into a 1.5 ml test tube and incubated at 37° C. for 15 min. At the end of the reaction, produced angiotensin II was immediately determined by high performance liquid chromatography […] the chymase activity to calculate 50% inhibitory concentration (IC50: nM).
The test was conducted several times. Chymase was prepared for each test in the manner described above. The compounds prepared in the above-described Examples were used for the test.

inhibitory activity on chymase (in words)	IC50 [nM]	Compound
powerful inhibitory activity on chymase	26	CC(=O)OCc1cnc(-c2ccccc2)n(CC(=O)NC(Cc2ccccc2)C(=O)C(=O)CCCOc2ccccn2)c1=O (stereo not shown) [Compound 1, 2-(5-acetyloxymethyl-4-oxo-2-phenyl-3,4-dihydro-pyrimidin-3-yl)-N-{2,3-dioxo-1-phenylmethyl-6-(2-pyridyloxy)}hexylacetamide]
powerful inhibitory activity on chymase	27	O=C(Cn1c(-c2ccccc2)ncc(CO)c1=O)NC(Cc1ccccc1)C(=O)C(=O)CCCOc1ccccn1 (stereo not shown) [Compound 2, 2-(5-hydroxymethyl-4-oxo-2-phenyl-3,4-dihydropyrimidin-3-yl)-N-{2,3-dioxo-1-phenylmethyl-6-(2-pyridyloxy)} hexylacetamide]
powerful inhibitory activity on chymase	22	COCc1cnc(-c2ccccc2)n(CC(=O)NC(Cc2ccccc2)C(=O)C(=O)CCCOc2ccccn2)c1=O (stereo not shown) [Compound 3, 2-(5-methoxymethyl-4-oxo-2-phenyl-3,4-dihydropyrimidin-3-yl)-N-{2,3-dioxo-1-phenylmethyl-6-(2-pyridyloxy)} hexylacetamide]
–	490	CCOC(=O)c1cnc(-c2ccccc2)n(CC(=O)NC(Cc2ccccc2)C(=O)C(=O)CCCOc2ccccn2)c1=O (stereo not shown) [Compound 4, 2-(5-ethoxycarbonyl-4-oxo-2-phenyl-3,4-dihydro-pyrimidin-3-yl)-N-{2,3-dioxo-1-phenylmethyl-6-(2-pyridyl-oxy)}hexylacetamide]
